Measured values as given in patent US20240301409A1, “Chemically Modified Small Activating RNA” (RACTIGEN THERAPEUTICS, priority 2021, published 2024).

System: J82 cells
Test: Cellular proliferation assay (CCK8) in J82 cells, combined with Mitomycin C or valrubicin
Format: cell-based, human
Settings: for Combination Index (CI) / relative proliferation proportion of cells: J82 cells
Protocol: J82 cells were transfected with RAG1-40-31 at concentrations of 0.1, 0.5, 1, 5, 10, 25 and 50 nM for 24 hours, and then Mitomycin C at concentrations of 1, 10, 100, 1000 and 10000 nM was added. The combined treatment was carried out with concentrations in pairs. After treatment, the proliferation of cells was detected using CCK8 kit. FIGS. 14A-14B show the relative proliferation proportion of J82 cells after the combined treatment with chemically modified saRNA RAG1-40-31 and valrubicin. […] Control and DMSO are the blank transfection control and the solvent for dilution control, respectively.
J82 cells were transfected with RAG1-40-31 at concentrations of 0.1, 0.5, 1, 5, 10, 25 and 50 nM for 24 hours, and then valrubicin at concentrations of 1, 10, 100, 1000 and 10000 nM was added. The combined treatment was carried out with concentrations in pairs. After treatment, the cellular proliferation was detected by CCK8 kit. FIGS. 15A-15B show the relative proliferation proportion of T24 cells after the combined treatment with chemically modified saRNA RAG1-40-31 and Mitomycin C. […] Control and DMSO are the blank transfection control and the solvent for dilution control, respectively.
Human bladder cancer cells Ku-7-LG (ATCC), J82 (ATCC) and T24 (ATCC) were cultured in McCoy medium (Gibco) comprising 10% calf serum (Sigma-Aldrich) and 1% penicillin/Streptomycin (Gibco). Cells were cultured at 37° C. under 5% CO2. Ku-7-LG, J82 and T24 cells were plated into 12-well plates at 10×10^4 cells per well, transfected with the small RNA at a concentration of 10 nM (unless otherwise specified) for three days, using RNAiMax (Invitrogen, Carlsbad, CA) according to the manufacturer's instructions. Two replicate wells were set for each treatment.
Cells were plated in a 96-well plate at 2˜4×10^3 cells/well, cultured overnight, and transfected with the oligonucleotide duplexes. Three days after transfection, CCK8 (Dojindo) was used to detect cellular proliferation following manufacturer's instructions. The experimental steps are briefly described as follows: 10 μL of CCK8 solution was added to each well, incubated at 37° C. for 1 hour, and then the absorbance at 450 nm was measured using a microplate reader.
In this example, chemically modified saRNA RAG1-40-31 was used in combination with clinical chemical agents to evaluate the suppressing effect of the combined agents on cancer cells.

[1] = RAG1-40-31 0.1 nM + MMC 1000 nM

RAG1-40-31: saRNA duplex: sense fCfCAACUCAUUCUCCAAG*U*C (SEQ ID NO 16); antisense U*A*fCfUfUGGAGAAfUGAGfUfUGG*fC*A (SEQ ID NO 12) (sense CCAACUCAUUCUCCAAGUC; antisense UACUUGGAGAAUGAGUUGGCA; 2'-F and phosphorothioate modifications; modified_base (1)..(2) (1,2)=2′-fluoro; modified_base (17)..(19) (17,18,19)=phosphorothioate (PS) backbone modification; modified_base (2)..(21) (2,3,19,20,21)=phosphorothioate (PS) backbone modification; modified_base (3)..(20) (3,4,5,12,16,17,20)=2′-fluoro)
Combination Index (CI) (RAG1-40-31 0.1 nM + MMC 1 nM): 0.08 | Combination Index (CI) (RAG1-40-31 0.1 nM + MMC 10 nM): 0.42 | Combination Index (CI) (RAG1-40-31 0.1 nM + MMC 100 nM): 0.47 | Combination Index (CI) [1]: 0.73 | Combination Index (CI) (RAG1-40-31 0.1 nM + MMC 10000 nM): 0.50 | Combination Index (CI) (RAG1-40-31 0.1 nM + valrubicin 1 nM): 0.10 | Combination Index (CI) (RAG1-40-31 0.1 nM + valrubicin 10 nM): 0.42 | Combination Index (CI) (RAG1-40-31 0.1 nM + valrubicin 100 nM): 0.85 | Combination Index (CI) (RAG1-40-31 0.1 nM + valrubicin 1000 nM): 0.18 | Combination Index (CI) (RAG1-40-31 0.1 nM + valrubicin 10000 nM): 0.19 | Combination Index (CI) (RAG1-40-31 0.5 nM + MMC 1 nM): 0.17 | Combination Index (CI) (RAG1-40-31 0.5 nM + MMC 10 nM): 0.47 | Combination Index (CI) (RAG1-40-31 0.5 nM + MMC 100 nM): 0.54 | Combination Index (CI) (RAG1-40-31 0.5 nM + MMC 1000 nM): 0.75 | Combination Index (CI) (RAG1-40-31 0.5 nM + MMC 10000 nM): 0.25 | Combination Index (CI) (RAG1-40-31 0.5 nM + valrubicin 1 nM): 0.18 | Combination Index (CI) (RAG1-40-31 0.5 nM + valrubicin 10 nM): 0.08 | Combination Index (CI) (RAG1-40-31 0.5 nM + valrubicin 100 nM): 1.31 | Combination Index (CI) (RAG1-40-31 0.5 nM + valrubicin 1000 nM): 0.14 | Combination Index (CI) (RAG1-40-31 0.5 nM + valrubicin 10000 nM): 0.11 | Combination Index (CI) (RAG1-40-31 1 nM + MMC 1 nM): 0.13 | Combination Index (CI) (RAG1-40-31 1 nM + MMC 10 nM): 0.58 | Combination Index (CI) (RAG1-40-31 1 nM + MMC 100 nM): 0.52 | Combination Index (CI) (RAG1-40-31 1 nM + MMC 1000 nM): 0.76 | Combination Index (CI) (RAG1-40-31 1 nM + MMC 10000 nM): 0.46 | Combination Index (CI) (RAG1-40-31 1 nM + valrubicin 1 nM): 0.26 | Combination Index (CI) (RAG1-40-31 1 nM + valrubicin 10 nM): 0.12 | Combination Index (CI) (RAG1-40-31 1 nM + valrubicin 100 nM): 0.30 | Combination Index (CI) (RAG1-40-31 1 nM + valrubicin 1000 nM): 0.12 | Combination Index (CI) (RAG1-40-31 1 nM + valrubicin 10000 nM): 0.11 | Combination Index (CI) (RAG1-40-31 5 nM + MMC 1 nM): 0.29 | Combination Index (CI) (RAG1-40-31 5 nM + MMC 10 nM): 0.32 | Combination Index (CI) (RAG1-40-31 5 nM + MMC 100 nM): 0.40 | Combination Index (CI) (RAG1-40-31 5 nM + MMC 1000 nM): 0.43 | Combination Index (CI) (RAG1-40-31 5 nM + MMC 10000 nM): 0.41 | Combination Index (CI) (RAG1-40-31 5 nM + valrubicin 1 nM): 0.12 | Combination Index (CI) (RAG1-40-31 5 nM + valrubicin 10 nM): 0.32 | Combination Index (CI) (RAG1-40-31 5 nM + valrubicin 100 nM): 0.61 | Combination Index (CI) (RAG1-40-31 5 nM + valrubicin 1000 nM): 0.13 | Combination Index (CI) (RAG1-40-31 5 nM + valrubicin 10000 nM): 0.06 | Combination Index (CI) (RAG1-40-31 10 nM + MMC 1 nM): 0.40 | Combination Index (CI) (RAG1-40-31 10 nM + MMC 10 nM): 0.47 | Combination Index (CI) (RAG1-40-31 10 nM + MMC 100 nM): 0.37 | Combination Index (CI) (RAG1-40-31 10 nM + MMC 1000 nM): 0.41 | Combination Index (CI) (RAG1-40-31 10 nM + MMC 10000 nM): 0.29 | Combination Index (CI) (RAG1-40-31 10 nM + valrubicin 1 nM): 0.14 | Combination Index (CI) (RAG1-40-31 10 nM + valrubicin 10 nM): 0.22 | Combination Index (CI) (RAG1-40-31 10 nM + valrubicin 100 nM): 0.37 | Combination Index (CI) (RAG1-40-31 10 nM + valrubicin 1000 nM): 0.11 | Combination Index (CI) (RAG1-40-31 10 nM + valrubicin 10000 nM): 0.04 | Combination Index (CI) (RAG1-40-31 25 nM + MMC 1 nM): 0.32 | Combination Index (CI) (RAG1-40-31 25 nM + MMC 10 nM): 0.50 | Combination Index (CI) (RAG1-40-31 25 nM + MMC 100 nM): 0.37 | Combination Index (CI) (RAG1-40-31 25 nM + MMC 1000 nM): 0.28 | Combination Index (CI) (RAG1-40-31 25 nM + MMC 10000 nM): 0.09 | Combination Index (CI) (RAG1-40-31 25 nM + valrubicin 1 nM): 0.14 | Combination Index (CI) (RAG1-40-31 25 nM + valrubicin 10 nM): 0.10 | Combination Index (CI) (RAG1-40-31 25 nM + valrubicin 100 nM): 0.16 | Combination Index (CI) (RAG1-40-31 25 nM + valrubicin 1000 nM): 0.05 | Combination Index (CI) (RAG1-40-31 25 nM + valrubicin 10000 nM): 0.02 | relative proliferation proportion of cells (RAG1-40-31 25 nM and 50 nM + Mitomycin C 1, 10, 100, 1000 and 10000 nM): lower than 26% | relative proliferation proportion of cells (RAG1-40-31 25 nM and 50 nM + Valrubicin 1, 10, 100, 1000 and 10000 nM): lower than 30% | Combination Index (CI) (RAG1-40-31 50 nM + MMC 1 nM): 0.96 | Combination Index (CI) (RAG1-40-31 50 nM + MMC 10 nM): 0.98 | Combination Index (CI) (RAG1-40-31 50 nM + MMC 100 nM): 0.44 | Combination Index (CI) (RAG1-40-31 50 nM + MMC 1000 nM): 0.19 | Combination Index (CI) (RAG1-40-31 50 nM + MMC 10000 nM): 0.15 | Combination Index (CI) (RAG1-40-31 50 nM + valrubicin 1 nM): 0.11 | Combination Index (CI) (RAG1-40-31 50 nM + valrubicin 10 nM): 0.14 | Combination Index (CI) (RAG1-40-31 50 nM + valrubicin 100 nM): 0.22 | Combination Index (CI) (RAG1-40-31 50 nM + valrubicin 1000 nM): 0.09 | Combination Index (CI) (RAG1-40-31 50 nM + valrubicin 10000 nM): 0.02 | relative proliferation proportion of cells (RAG1-40-31 0.1-50 nM + Mitomycin C 100, 1000 and 10000 nM): lower than 35% | relative proliferation proportion of cells (RAG1-40-31 0.1-50 nM + Valrubicin 1000 nM and 10000 nM): lower than 30% | relative proliferation proportion of cells (RAG1-40-31 5-50 nM + Mitomycin C 1, 10, 100, 1000 and 10000 nM): lower than 43% | effect of combined use with Mitomycin C or valrubicin, in words (J82 tumor cells): synergistic effect | Relative proliferation proportion of J82 cells (RAG1-40-31 0.1 nM + MMC 1 nM): 74.3% | Relative proliferation proportion of J82 cells (RAG1-40-31 0.1 nM + MMC 10 nM): 71.5% | Relative proliferation proportion of J82 cells (RAG1-40-31 0.1 nM + MMC 100 nM): 32.9% | Relative proliferation proportion of J82 cells [1]: 10.8%
